Experimental data published in PubChem BioAssay (NCI).
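1) Cells in 96-well plates. 2) Compound, 48 h, 5 concentrations. 3) Linear interpolation between surrounding doses. 4) Unreached endpoint = highest concentration. TGI marks complete inhibition of growth.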

Key:
Experiment in all cases: NCI tumour cell line growth inhibition, 48 h
[1] = tested on: 786-0 renal
[2] = tested on: A498 renal
[3] = tested on: A549 NSCLC
[4] = tested on: ACHN renal
[5] = tested on: CAKI-1 renal
[6] = tested on: CCRF-CEM leukemia
[7] = tested on: COLO 205 colon
[8] = tested on: DMS 273 small cell lung
[9] = tested on: EKVX NSCLC
[10] = tested on: HCT-116 colon
[11] = tested on: HCT-15 colon
[12] = tested on: HL-60(TB) leukemia
[13] = tested on: HOP-62 NSCLC
[14] = tested on: HOP-92 NSCLC
[15] = tested on: HT29 colon
[16] = tested on: IGROV1 ovarian
[17] = tested on: K-562 leukemia
[18] = tested on: KM12 colon
[19] = tested on: KM20L2 colon
[20] = tested on: LOX IMVI melanoma
[21] = tested on: LXFL 529 NSCLC
[22] = tested on: M14 melanoma
[23] = tested on: M19-MEL melanoma
[24] = tested on: MOLT-4 leukemia
[25] = tested on: NCI-H226 lung
[26] = tested on: NCI-H23 lung
[27] = tested on: NCI-H460 lung
[28] = tested on: NCI-H522 lung
[29] = tested on: OVCAR-3 ovarian
[30] = tested on: OVCAR-4 ovarian
[31] = tested on: OVCAR-5 ovarian
[32] = tested on: OVCAR-8 ovarian
[33] = tested on: RPMI-8226 leukemia
[34] = tested on: RXF 393 renal
[35] = tested on: SF-268 CNS
[36] = tested on: SF-295 CNS
[37] = tested on: SF-539 CNS
[38] = tested on: SK-MEL-2 melanoma
[39] = tested on: SK-MEL-28 melanoma
[40] = tested on: SK-MEL-5 melanoma
[41] = tested on: SK-OV-3 ovarian
[42] = tested on: SN12C renal
[43] = tested on: SNB-19 CNS
[44] = tested on: SNB-75 CNS
[45] = tested on: SNB-78 CNS
[46] = tested on: SR leukemia
[47] = tested on: SW-620 colon
[48] = tested on: TK-10 renal
[49] = tested on: U251 CNS
[50] = tested on: UACC-257 melanoma
[51] = tested on: UACC-62 melanoma
[52] = tested on: UO-31 renal
[53] = tested on: XF 498 CNS
[54] = tested on: DLD-1 colon
[55] = tested on: DMS 114 small cell lung
[56] = tested on: HCC-2998 colon
[57] = tested on: MALME-3M melanoma

Measured: TGI

OCCNCO
not listed: [54] | [55] | [56] | [57]
> 100 µM: all other assays above

O=C(OCc1ccccc1)OOC(=O)OCc1ccccc1
not listed: [1] | [8] | [20] | [25] | [32] | [48] | [53]
> 100 µM: all other assays above
